Source: US4401594A, “L-Argininal derivatives and a method of manufacturing the same” (Nippon Kayaku Kabushiki Kaisha, priority 1980, dated 1983)
Counter-ions that a name gives are not always drawn. Like-named read-outs stand apart in the source and are kept apart here. Where a SMILES comes first, the peptide text is derived from it. [ ]: non-standard residue; d: D form. The star is where a group is joined. pGlu = O=C1CC[C@@H](C(=O)O)N1; Cbz = O=C(OCc1ccccc1)*

Key:
plasmin = target: T1, plasmin (Homo sapiens, UniProt P00747); experiment: Determination of Anti-Plasmin Activity; assay type: biochemical; settings: fibrinogen substrate, plasminogen from human serum + streptokinase, pH 7.2, 37° C., 20 minutes
T1 construct: fibrinogen substrate
T1 sequence (P00779 27-440): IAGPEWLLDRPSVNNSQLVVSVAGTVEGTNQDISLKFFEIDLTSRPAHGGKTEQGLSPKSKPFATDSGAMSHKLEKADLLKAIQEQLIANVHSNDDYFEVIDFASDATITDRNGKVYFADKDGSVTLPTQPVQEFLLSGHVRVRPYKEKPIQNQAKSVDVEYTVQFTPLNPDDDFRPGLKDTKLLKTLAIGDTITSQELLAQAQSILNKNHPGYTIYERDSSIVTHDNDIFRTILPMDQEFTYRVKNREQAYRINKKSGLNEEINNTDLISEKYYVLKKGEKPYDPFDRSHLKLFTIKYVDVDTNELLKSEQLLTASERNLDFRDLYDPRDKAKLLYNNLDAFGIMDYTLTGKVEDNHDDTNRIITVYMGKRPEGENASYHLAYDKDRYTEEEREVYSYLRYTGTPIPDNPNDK
T1 sequence (P00747 97-810): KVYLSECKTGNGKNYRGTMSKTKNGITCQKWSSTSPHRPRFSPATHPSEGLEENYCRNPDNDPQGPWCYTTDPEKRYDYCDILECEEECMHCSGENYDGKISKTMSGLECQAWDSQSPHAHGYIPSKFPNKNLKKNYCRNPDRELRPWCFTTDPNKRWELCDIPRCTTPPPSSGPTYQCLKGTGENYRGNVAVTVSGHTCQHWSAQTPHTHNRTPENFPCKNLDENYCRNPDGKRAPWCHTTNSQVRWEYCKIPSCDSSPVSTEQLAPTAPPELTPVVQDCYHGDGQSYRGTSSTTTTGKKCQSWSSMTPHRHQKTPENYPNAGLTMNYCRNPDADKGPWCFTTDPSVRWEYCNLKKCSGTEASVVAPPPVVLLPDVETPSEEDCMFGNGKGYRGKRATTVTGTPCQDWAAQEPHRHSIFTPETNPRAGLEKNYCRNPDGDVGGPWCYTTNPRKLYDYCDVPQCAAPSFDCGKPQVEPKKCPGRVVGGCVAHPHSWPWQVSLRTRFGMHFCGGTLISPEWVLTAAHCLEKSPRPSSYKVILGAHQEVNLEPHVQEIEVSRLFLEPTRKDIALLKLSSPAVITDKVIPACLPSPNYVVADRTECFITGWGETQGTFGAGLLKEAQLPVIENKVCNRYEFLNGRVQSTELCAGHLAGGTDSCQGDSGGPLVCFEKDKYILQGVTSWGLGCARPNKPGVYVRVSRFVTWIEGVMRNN
Protocol: The inhibitory activity of the compounds on each protease was determined as follows:
Buffer solution: pH 7.2, 0.01 M phosphate buffer solution.
Substrate: 2 g of fibrinogen (Armour Pharm. Co., U.S.A.) were dissolved in 100 ml of the phosphate buffer solution under heat.
Enzyme: The human serum was mixed with 20 times as much water, and after acetic acid had been added into the mixture to adjust it to pH 5.2, the solution was left at room temperature for half an hour. The precipitates obtained by centrifugation at 3,000 rpm for 10 minutes was dissolved in an equal quantity of the buffer solution to that of the serum, and the resulting solution was subjected to centrigugation at 10,000 rpm for half an hour, whereby a plasminogen solution was obtained as the supernatant. A solution of streptokinase (Varidase, Lederle Lab., U.S.A.) having a concentration of 10,000 U/ml was prepared, and kept in a cold and dark place. Prior to use, it was diluted with the buffer solution into a solution having a concentration of 2,000 U/ml. The enzyme solution was adjusted prior to use so that 0.5 ml thereof might show an absorbance of about 0.4 at 280 nm after 20 minutes of reaction.
Method: 0.5 ml of the plasminogen solution, 0.3 ml of the phosphate buffer solution, 0.1 ml of the streptokinase solution, and 0.1 ml of the test sample or water were placed in a test tube (15 mm×100 mm). After the mixed solution in the test tube had been heated at 37° C. for three minutes, 2.0 ml of the fibrinogen solution were added into the solution in the test tube, and reacted therewith at 37° C. for 20 minutes. When the reaction had been completed, 1.5 ml of a 1.7 M perchloric acid solution were added into the test tube, and its contents were shaken slightly. After the test tube had been stood at room temperature for an hour, its contents were subjected to centrigugation at 3,000 rpm for 10 minutes. The absorbance (a) of the supernatant thus obtained was measured at 280 nm. The absorbance (b) of the controll solution not containing any compound of this invention was also measured.
The inhibition coefficients of the compounds of this invention on each enzyme were calculated from the absorbances (a) and (b) obtained as hereinabove described, in accordance with the following formula: [formula] These inhibition rates were obtained for various concentrations of the compounds according to this invention, and the concentration of a 50% inhibition (IC50) were calculated therefrom.

fibrinolytic system = settings: cited from earlier work
[1] = test system: chickens with spontaneous muscular dystrophy; settings: Libby et al., Science 1978; cited from earlier work
[2] = read-out: IC50 Plasmin (converted)

SMILES | IC50 (plasmin; [2]) [µM] | further results
CC(C)C[C@H](NC(=O)C(O)c1ccccc1)C(=O)N[C@H](C=O)CCCNC(=N)N (mixture of isomers) [Compound No. 35, DL-Mandelyl-L-leucyl-L-argininal hydrochloride] | 3.17 | 
CC(C)C[C@H](NC(=O)Cc1ccccc1)C(=O)N[C@H](C=O)CCCNC(=N)N [Compound No. 15, Phenylacetyl-L-leucyl-L-argininal hydrochloride] | 14.6 | 
CC(=O)N[C@@H](CC(C)C)C(=O)N[C@@H](CC(C)C)C(=O)N[C@H](C=O)CCCNC(=N)N [Leupeptin, acetyl or propionyl-L-leucyl-L-leucyl-L-argininal] | 11 | pharmacological action on the fibrinolytic system (fibrinolytic system): a pharmacological action on the fibrinolytic system; inhibition of atrophy of the muscles [1]: inhibits the atrophy of the muscles
CC(C)C[C@H](NC(=O)c1ccccc1)C(=O)N[C@H](C=O)CCCNC(=N)N [Compound No. 8, Benzoyl-L-leucyl-L-argininal hydrochloride] | 44.4 | 
CC(C)C[C@H](NC(=O)Cc1ccccc1O)C(=O)N[C@H](C=O)CCCNC(=N)N [Compound No. 18, o-Hydroxyphenylacetyl-L-leucyl-L-argininal hydrochloride] | 12.9 | 
Cc1ccc(S(=O)(=O)N[C@@H](CC(C)C)C(=O)N[C@H](C=O)CCCNC(=N)N)cc1 [Compound No. 14, p-Toluenesulfonyl-L-leucyl-L-argininal hydrochloride] | 14.5 | 
CC(C)C[C@H](NS(=O)(=O)c1cccc2ccccc12)C(=O)N[C@H](C=O)CCCNC(=N)N [Compound No. 20, 1-Naphthalenesulfonyl-L-leucyl-L-argininal hydrochloride] | 28.2 | 
Cc1ccc(C(=O)N[C@@H](CC(C)C)C(=O)N[C@H](C=O)CCCNC(=N)N)cc1 [Compound No. 10, p-Methylbenzoyl-L-leucyl-L-argininal hydrochloride] | 32.9 | 
CC(C)C[C@H](NC(=O)OCc1ccccc1)C(=O)N[C@H](C=O)CCCNC(=N)N [Compound No. 25, Benzyloxycarbonyl-L-leucyl-L-argininal hydrochloride] | 33.9 | 
CCCCCC(=O)N[C@@H](CC(C)C)C(=O)N[C@H](C=O)CCCNC(=N)N [Compound No. 3, n-Hexanoly-L-leucyl-L-argininal hydrochloride] | 16.8 | 
CC(C)C[C@H](NC(=O)Cc1ccc([N+](=O)[O-])cc1)C(=O)N[C@H](C=O)CCCNC(=N)N [Compound No. 17, p-Nitrophenylacetyl-L-leucyl-L-argininal hydrochloride] | 3.61 | 
CCCC(=O)N[C@@H](CC(C)C)C(=O)N[C@H](C=O)CCCNC(=N)N [Compound No. 1, n-Butanoyl-L-leucyl-L-argininal hydrochloride] | 37.8 | 
CCC(CC)C(=O)N[C@@H](CC(C)C)C(=O)N[C@H](C=O)CCCNC(=N)N [Compound No. 2, 2-Ethylbutanoly-L-leucyl-L-argininal hydrochloride] | 81.2 | 
CC(C)C[C@H](NC(=O)Cc1ccccc1[N+](=O)[O-])C(=O)N[C@H](C=O)CCCNC(=N)N [Compound No. 16, o-Nitrophenylacetyl-L-leucyl-L-argininal hydrochloride] | 42.5 | 
CC(C)C[C@H](NC(=O)c1ccco1)C(=O)N[C@H](C=O)CCCNC(=N)N [Compound No. 26, Furan-2-carbonyl-L-leucyl-L-argininal hydrochloride] | 90.3 | 
CC(C)C[C@H](NC(=O)[C@@H](O)[C@@H](Cc1ccccc1)NC(=O)OCc1ccccc1)C(=O)N[C@H](C=O)CCCNC(=N)N [Compound No. 37, N-Benzyloxycarbonyl-(2S,3R)-3-amino-2-hydroxy-4-phenylbutanoyl-L-leucyl-L-argininal hydrochloride] |  | IC50 (plasmin; read-out: IC50 Plasmin): 2.4 µM
CC(C)C[C@H](NC(=O)C1CCCCC1)C(=O)N[C@H](C=O)CCCNC(=N)N [Compound No. 6, Cyclohexanecarbonyl-L-leucyl-L-argininal hydrochloride] | 56 | 
CC(C)C[C@H](NC(=O)[C@H](Cc1ccccc1)NC(=O)OCc1ccccc1)C(=O)N[C@H](C=O)CCCN=C(N)N [Compound No. 36, N-Benzyloxycarbonyl-L-phenylalanyl-L-leucyl-L-argininal hydrochloride] (Cbz-Phe-Leu-Arg-aldehyde) | 1.24 | 
CC(C)C[C@H](NS(=O)(=O)c1ccccc1)C(=O)N[C@H](C=O)CCCNC(=N)N [Compound No. 13, Benzenesulfonyl-L-leucyl-L-argininal hydrochloride] | 23.9 | 
CC(C)C[C@H](NC(=O)c1ccc([N+](=O)[O-])cc1)C(=O)N[C@H](C=O)CCCNC(=N)N [Compound No. 12, p-Nitrobenzoyl-L-leucyl-L-argininal hydrochloride] | 30.6 | 
CC(C)CC(=O)N[C@@H](CC(C)C)C(=O)N[C@H](C=O)CCCNC(=N)N [Compound No. 4, 3-Methylbutanoyl-L-leucyl-L-argininal hydrochloride] | 21.4 | 
CC(C)C[C@H](NS(=O)(=O)c1cccc2c(N(C)C)cccc12)C(=O)N[C@H](C=O)CCCNC(=N)N [Compound No. 21, 5-Dimethylamino-1-naphthalenesulfonyl-L-leucyl-L-argininal 2 hydrochloride] | 24.4 | 
CC(C)C[C@H](NC(=O)[C@@H]1CCC(=O)N1C(=O)OCc1ccccc1)C(=O)N[C@H](C=O)CCCNC(=N)N [Compound No. 30, N-Benzyloxycarbonyl-L-pyroglutamyl-L-leucyl-L-argininal hydrochloride] | 0.958 | 
CC(C)C[C@H](NC(=O)c1cccc(Cl)c1)C(=O)N[C@H](C=O)CCCNC(=N)N [Compound No. 9, m-Chlorobenzoyl-L-leucyl-L-argininal hydrochloride] | 13.4 | 
CC(C)C[C@H](NC(=O)[C@@H]1CCC(=O)N1)C(=O)N[C@H](C=O)CCCNC(=N)N [Compound No. 31, L-Pyroglutamyl-L-leucyl-L-argininal hydrochloride] ([pGlu]-Leu-Arg-aldehyde) | 1.19 | 
CC(C)C[C@H](NC(=O)c1cccnc1)C(=O)N[C@H](C=O)CCCNC(=N)N [Compound No. 23, Nicotinyl-L-leucyl-L-argininal hydrochloride] |  | IC50 (plasmin; read-out: IC50 Plasmin): 23.9 µM
COc1ccc(C(=O)N[C@@H](CC(C)C)C(=O)N[C@H](C=O)CCCNC(=N)N)cc1 [Compound No. 11, p-Methoxybenzoyl-L-leucyl-L-argininal hydrochloride] | 39.1 | 
CC(C)C[C@H](NC(=O)c1ccncc1)C(=O)N[C@H](C=O)CCCNC(=N)N [Compound No. 22, Isonicotinyl-L-leucyl-L-argininal hydrochloride] |  | IC50 (plasmin; read-out: IC50 Plasmin): 88.7 µM
CCCCCCCCC(=O)N[C@@H](CC(C)C)C(=O)N[C@H](C=O)CCCNC(=N)N [Compound No. 5, n-Nonanoyl-L-leucyl-L-argininal hydrochloride] | 2.68 | 
